Results from ChEMBL document CHEMBL4699621, “Novel piperazine-2,5-dione analogs bearing 1H-indole: Synthesis and biological effects” (Bioorg Med Chem Lett, 2020).

Key:
Mus musculus [1] = assay: Analgesic activity in mouse assessed as inhibition of acetic acid-induced writhing at 10 mg/kg, ip measured after 60 mins relative to control; assay type: functional; parameters: scale not given: the % may be the effect or the level left; conditions: 1 h
Mus musculus [2] = assay: Anti-inflammatory activity against dimethylbenzene-induced ear edema mouse model assessed as inhibition of ear edema at 10 mg/kg, ip measured after 60 mins relative to control; assay type: functional; parameters: scale not given: the % may be the effect or the level left; conditions: 1 h
Mus musculus [3] = assay: Anti-inflammatory activity against dimethylbenzene-induced ear edema mouse model assessed as inhibition of ear edema at 10 mg/kg, ip measured after 60 mins (reference value: 6.93 +/- 1.05 mg); assay type: functional; conditions: 1 h
Mus musculus [4] = assay: Antidepressant activity in mouse assessed as decrease in immobility time at 10 mg/kg, ip by forced swimming test (reference value: 147.8 +/- 10.2 sec); assay type: functional
Mus musculus [5] = assay: Antidepressant activity in mouse assessed as decrease in immobility time at 10 mg/kg, ip by forced swimming test relative to control; assay type: functional; parameters: scale not given: the % may be the effect or the level left
[6] = biological target: 5-HT3 receptor (Cavia porcellus); assay: Antagonist activity against 5-H3R in guinea pig ileum preincubated for 10 mins followed by 2-methyl 5-HT addition; conditions: read-out: pA2 (converted)

Cc1ccc2cc(CC3NC(=O)C(C)NC3=O)[nH]c2c1 (stereo not given)
Activity (Mus musculus [1]): 79.3%
Activity (Mus musculus [2]): 83.3%
Activity (Mus musculus [3]): 1.12 mg
Time (Mus musculus [4]): 58.2 s

COc1ccc2[nH]c(CC3NC(=O)C(C)NC3=O)cc2c1 (stereo not given)
Activity (Mus musculus [1]): 53.2%
Activity (Mus musculus [3]): 1.41 mg
Time (Mus musculus [4]): 67.3 s

CC1NC(=O)C(Cc2cc3ccc(F)cc3[nH]2)NC1=O (stereo not given)
Activity (Mus musculus [1]): 77.8%
Activity (Mus musculus [2]): 90%
Activity (Mus musculus [3]): 0.69 mg
Time (Mus musculus [4]): 52.8 s

CC1NC(=O)C(Cc2cc3cc(Br)ccc3[nH]2)NC1=O (stereo not given)
Activity (Mus musculus [1]): 70.2%
Activity (Mus musculus [3]): 1.42 mg
Time (Mus musculus [4]): 79.4 s

CC1NC(=O)C(Cc2cc3cc(C(F)(F)F)ccc3[nH]2)NC1=O (stereo not given)
Activity (Mus musculus [1]): 88.9%
Activity (Mus musculus [2]): 93.5%
Activity (Mus musculus [3]): 0.45 mg
Activity (Mus musculus [5]): 70.2%
Time (Mus musculus [4]): 44 s

CC1NC(=O)C(Cc2cc3cc(Cl)ccc3[nH]2)NC1=O (stereo not given)
Activity (Mus musculus [1]): 87.5%
Activity (Mus musculus [2]): 89.8%
Activity (Mus musculus [3]): 0.7 mg
Time (Mus musculus [4]): 64.8 s

CC1NC(=O)C(Cc2cc3ccc(Cl)cc3[nH]2)NC1=O (stereo not given)
Activity (Mus musculus [1]): 65.4%
Activity (Mus musculus [2]): 87.2%
Activity (Mus musculus [3]): 0.89 mg
Time (Mus musculus [4]): 66.8 s

CC1NC(=O)C(Cc2cc3ccc(Br)cc3[nH]2)NC1=O (stereo not given)
Activity (Mus musculus [1]): 62.8%
Activity (Mus musculus [3]): 1.72 mg
Time (Mus musculus [4]): 76.8 s

Cc1cc2cc(CC3NC(=O)C(C)NC3=O)[nH]c2cc1C (stereo not given)
Activity (Mus musculus [1]): 54.3%
Activity (Mus musculus [3]): 2.83 mg
Time (Mus musculus [4]): 87.2 s

Cc1ccc2[nH]c(CC3NC(=O)C(C)NC3=O)cc2c1 (stereo not given)
Activity (Mus musculus [1]): 55.2%
Activity (Mus musculus [2]): 85%
Activity (Mus musculus [3]): 1.04 mg
Time (Mus musculus [4]): 53.5 s

CC1NC(=O)C(Cc2cc3ccccc3[nH]2)NC1=O (stereo not given)
Activity (Mus musculus [1]): 51.6%
Activity (Mus musculus [3]): 2.4 mg
Time (Mus musculus [4]): 93.3 s

COc1cc2cc(CC3NC(=O)C(C)NC3=O)[nH]c2cc1OC (stereo not given)
Activity (Mus musculus [1]): 58.9%
Activity (Mus musculus [3]): 3.03 mg
Time (Mus musculus [4]): 98 s

COc1ccc2cc(CC3NC(=O)C(C)NC3=O)[nH]c2c1 (stereo not given)
Activity (Mus musculus [1]): 65%
Activity (Mus musculus [3]): 1.5 mg
Time (Mus musculus [4]): 77.2 s

CC1NC(=O)C(Cc2cc3cc([N+](=O)[O-])ccc3[nH]2)NC1=O (stereo not given)
Activity (Mus musculus [1]): 66.8%
Activity (Mus musculus [3]): 1.61 mg
Time (Mus musculus [4]): 88.6 s

CC1NC(=O)C(Cc2cc3cc(F)ccc3[nH]2)NC1=O (stereo not given)
Activity (Mus musculus [1]): 90.2%
Activity (Mus musculus [2]): 91.2%
Activity (Mus musculus [3]): 0.61 mg
Time (Mus musculus [4]): 53.1 s

CC1NC(=O)C(Cc2cc3ccc(N(C)C)cc3[nH]2)NC1=O (stereo not given)
Activity (Mus musculus [1]): 60.1%
Activity (Mus musculus [3]): 2.47 mg
Time (Mus musculus [4]): 95.1 s

CC1NC(=O)C(Cc2cc3cc(N(C)C)ccc3[nH]2)NC1=O (stereo not given)
Activity (Mus musculus [1]): 50.9%
Activity (Mus musculus [3]): 2.02 mg
Time (Mus musculus [4]): 91.3 s

CNCCC(Oc1ccc(C(F)(F)F)cc1)c1ccccc1 (stereo not given) [FLUOXETINE]
Activity (Mus musculus [5]): 67.9%
Time (Mus musculus [4]): 47.4 s

Cc1ccccc1N1CCN(C(=O)C2Cc3ccccc3N2C)CC1 (stereo not given)
Kb [6]: 31.6 nM

CC1NC(=O)C(Cc2cc3cc(Cl)c(Cl)cc3[nH]2)NC1=O (stereo not given)
Activity (Mus musculus [1]): 82.5%
Activity (Mus musculus [2]): 87.2%
Activity (Mus musculus [3]): 0.79 mg
Activity (Mus musculus [5]): 71.2%
Time (Mus musculus [4]): 42.5 s

COc1ccc2c(c1)c(CC(=O)O)c(C)n2C(=O)c1ccc(Cl)cc1 [INDOMETHACIN]
Activity (Mus musculus [1]): 88.7%
Activity (Mus musculus [2]): 84.8%
Activity (Mus musculus [3]): 1.05 mg
